Reference: patent publication US20210010053A1, “ASSAYS FOR IMPROVING AUTOMATED ANTIMICROBIAL SUSCEPTIBILITY TESTING ACCURACY” (SELUX DIAGNOSTICS, INC., priority 2019, published 2021)

Columns and labels:
[1] = system: beta lactamase; assay: beta-lactamase inhibitor assay with nitrocefin probe; format: cell-based; details: 4μg/mL inhibitor, 0.25 mg/mL nitrocefin, 35° C., 4 hours, absorbance 490 nm, FIG. 1
Procedure: Example 1. Microbes were prepared by diluting colonies into saline to reach a McFarland value of 0.5, which was verified using a spectrophotometer. This was diluted 1:20 into saline and 50 μI of inoculum was added to wells of a 384-well plate. For each strain, 25 μI of solutions containing either 0.25 mg/mL nitrocefin alone (Nitro), 0.25 mg/mL nitrocefin and 4μg/mL clauvulanate (Nitro Clay), or 0.25 mg/mL nitrocefin and 4μg/mL tazobactam (Nitro Tazo) were added to duplicate wells. Inoculated plates were incubated at 35° C., shaking at 150 rpm for 4 hours. Absorbance was read at 490 nm and values shown in FIG. 1 are the absorbance in the indicated condition minus the absorbance from microbial inoculum alone without nitrocefin. A greater value indicates microbial ability to degrade nitrocefin, and thus, the presence of a beta lactamase. A reduction in absorbance value in the presence of an inhibitor indicates the beta lactamase present is sensitive to the inhibitor. […] Further, the inhibitors are both active against each of the strains with known beta lactamases.

[2] = system: E cloacae (IMP); details: 0.01 mM EDTA added to Solution 4, vacuum dried, 3 hours of incubation
Excerpt: (§1) Example 9. […] Multiple different bacterial strains listed in Table 7 were inoculated into each of 3 wells.

[3] = system: E cloacae (NDM); details: 0.01 mM EDTA added to Solution 4, vacuum dried, 3 hours of incubation
Excerpt: as §1

[4] = system: E coli 25922; details: E coli 25922, no carbapenemase; 0.01 mM EDTA added to Solution 4, vacuum dried; 3 hours of incubation
Excerpt: as §1

[5] = system: K pneumoniae (KPC); details: 0.01 mM EDTA added to Solution 4, vacuum dried, 3 hours of incubation
Excerpt: as §1

[6] = system: K pneumoniae (NDM); details: 0.01 mM EDTA added to Solution 4, vacuum dried, 3 hours of incubation
Excerpt: as §1

[7] = system: M morganii (KPC); details: 0.01 mM EDTA added to Solution 4, vacuum dried, 3 hours of incubation
Excerpt: as §1

[8] = system: M morganii (NDM); details: 0.01 mM EDTA added to Solution 4, vacuum dried, 3 hours of incubation
Excerpt: as §1

`O=C(O)[C@H]1/C(=C/CO)O[C@@H]2CC(=O)N21` [clauvulanate] was tested, and the “activity of inhibitor against strains with known beta lactamases (reduction in nitrocefin absorbance)” value [1] was “active”.

In the case of `C[C@]1(Cn2ccnn2)[C@H](C(=O)O)N2C(=O)C[C@H]2S1(=O)=O` [tazobactam], the “activity of inhibitor against strains with known beta lactamases (reduction in nitrocefin absorbance)” value [1] is reported as “active”.

In the case of `O=C(O)CN(CCN(CC(=O)O)CC(=O)O)CC(=O)O` [EDTA, Ethylenediaminetetraacetic acid], the “Carba Test with EDTA” value [2] is reported as −1816.5, the “Carba Test with EDTA” value [3] is reported as −2084.5 and the “Carba Test with EDTA” value [4] is reported as −1541.5. For the same molecule, the “Carba Test with EDTA” value [5] was 3705.5, the “Carba Test with EDTA” value [6] was −2222.5 and the “Carba Test with EDTA” value [7] was 1288.5. The “Carba Test with EDTA” value [8] was −1923.5.
